# Data taken from ChEMBL document CHEMBL4007397, “Discovery of First-in-Class, Potent, and Orally Bioavailable Embryonic Ectoderm Development (EED) Inhibitor with Robust Anticancer Efficacy” (J Med Chem, 2017).
# Activity calls are given as the source filed them. The calls are words filed in the database; no cut-off is given here.
# Assays:
# [1] = Protein binding in mouse plasma assessed as unbound fraction; format: ADME, cell-free
# Mus musculus [2] = assay: Dose normalized AUC in CD-1 mouse at 1 mg/kg, iv by LC-MS/MS analysis; format: ADME, organism-based; conditions: in vivo
# in vivo [3] = conditions: CD-1, mouse, plasma, iv, 1 mg/kg
# KARPAS-422 [4] = assay: Antiproliferative activity against human KARPAS422 cells harboring monoallelic Y641N EZH2 mutation assessed as reduction in cell viability measured every 3 to 4 days up to 14 days by Beckman Coulter-based method; format: functional
# [5] = (§1) Oral bioavailability in CD-1 mouse at 2 mg/kg by LC-MS/MS analysis; format: ADME, organism-based; conditions: CD-1, mouse, in vivo
# Mus musculus [6] = assay: Dose normalized unbound AUC in CD-1 mouse at 2 mg/kg, po by LC-MS/MS analysis; format: ADME, organism-based; conditions: in vivo
# in vivo [7] = conditions: CD-1, mouse, iv, 1 mg/kg
# Description: Volume of distribution at steady state in CD-1 mouse at 1 mg/kg, iv or 2 mg/kg, po by LC-MS/MS analysis
# Mus musculus [8] = assay: Dose normalized AUC in CD-1 mouse at 2 mg/kg, po by LC-MS/MS analysis; format: ADME, organism-based; conditions: in vivo
# in vivo [9] = conditions: CD-1, mouse
# Polycomb protein EED [10] = molecular target: T1, Polycomb protein EED (Homo sapiens, UniProt O75530); assay: Inhibition of EED in human G401 cells assessed as reduction in global H3K27me3 level after 48 hrs by ELISA; format: cell-based
# Polycomb protein EED [11] = molecular target: T1, Polycomb protein EED
# Description: Inhibition of recombinant N-terminal GST-tagged EED (76 to 441 residues) (unknown origin) expressed in Escherichia coli BL21-CodonPlus(DE3)-RIL assessed as reduction in SAH production using H3[21-44,K27Me0) peptide as substrate measured after 20 mins by LC/MS/MS method
# Polycomb protein EED [12] = molecular target: T1, Polycomb protein EED; assay: Inhibition of recombinant N-terminal GST-tagged EED (76 to 441 residues) (unknown origin) expressed in Escherichia coli BL21-CodonPlus(DE3)-RIL incubated for 20 mins using EED-H3K27me3 peptide based AlphaScreen competition binding assay
# [13] = Solubility of the crystalline form of compound in simulated gastric fluid; format: physicochemical
# Canis familiaris = assay: Dose normalized unbound AUC in Beagle dog at 2 mg/kg, po by LC-MS/MS analysis; format: ADME, organism-based, Canis lupus familiaris; conditions: in vivo
# [14] = Total clearance in Beagle dog at 1 mg/kg, iv or 2 mg/kg, po by LC-MS/MS analysis; format: ADME, organism-based, Canis lupus familiaris; conditions: in vivo
# Mus musculus [15] = assay: In-vivo inhibition of EED in Balb/C nude mouse xenografted with human KARPAS422 cells assessed as decrease in global H3K27me3 level at 1.5 to 40 mg/kg, po BID for 21 days; format: functional, organism-based
# Mus musculus [16] = assay: Antitumor activity against human KARPAS422 cells xenografted in Balb/C nude mouse assessed as reduction in tumor volume at 1.5 to 40 mg/kg, po BID for 2 weeks; format: functional, organism-based
# [17] = Oral bioavailability in Beagle dog at 2 mg/kg by LC-MS/MS analysis; format: ADME, organism-based, Canis lupus familiaris; conditions: in vivo
# [18] = Protein binding in Sprague-Dawley rat plasma assessed as unbound fraction; format: ADME, cell-free
# KARPAS-422 [19] = assay: Antitumor activity against human KARPAS422 cells xenografted in Balb/C nude mouse assessed as tumor regression at 300 mg/kg, po BID for 34 days; format: functional, organism-based
# [20] = Total clearance in Sprague-Dawley rat at 1 mg/kg, iv or 2 mg/kg, po by LC-MS/MS analysis; format: ADME, organism-based; conditions: in vivo
# [21] = Solubility of the crystalline form of compound at pH 3; format: physicochemical
# [22] = Plasma protein binding in Beagle dog assessed as unbound fraction; format: ADME, cell-free, Canis lupus familiaris
# [23] = Permeability across apical to basolateral side of human Caco2 cells; format: ADME, cell-based; conditions: Caco-2, read-out: permeability
# Mus musculus [24] = assay: as §1; format: ADME, organism-based; conditions: mouse, in vivo
# [25] = Equilibrium solubility of the compound by high-throughput assay; format: physicochemical
# Rattus norvegicus = assay: Dose normalized unbound AUC in Sprague-Dawley rat at 2 mg/kg, po by LC-MS/MS analysis; format: ADME, organism-based; conditions: in vivo
# [26] = Protein binding in human plasma assessed as unbound fraction; format: ADME, cell-free
# [27] = Oral bioavailability in Sprague-Dawley rat at 2 mg/kg by LC-MS/MS analysis; format: ADME, organism-based; conditions: in vivo
# [28] = Solubility of the crystalline form of compound at pH 7; format: physicochemical
# [29] = Solubility of the crystalline form of compound in fasted state simulated intestinal fluid; format: physicochemical
# Mus musculus [30] = assay: Toxicity in CD-1 mouse assessed as effect on body weight at 300 mg/kg, po BID after 14 day; format: organism-based; conditions: in vivo, 336 h
# [31] = Hepatic extraction ratio in mouse liver microsomes; format: ADME, microsome; conditions: read-out: ERH
# T1 sequence (O75530 whole entry): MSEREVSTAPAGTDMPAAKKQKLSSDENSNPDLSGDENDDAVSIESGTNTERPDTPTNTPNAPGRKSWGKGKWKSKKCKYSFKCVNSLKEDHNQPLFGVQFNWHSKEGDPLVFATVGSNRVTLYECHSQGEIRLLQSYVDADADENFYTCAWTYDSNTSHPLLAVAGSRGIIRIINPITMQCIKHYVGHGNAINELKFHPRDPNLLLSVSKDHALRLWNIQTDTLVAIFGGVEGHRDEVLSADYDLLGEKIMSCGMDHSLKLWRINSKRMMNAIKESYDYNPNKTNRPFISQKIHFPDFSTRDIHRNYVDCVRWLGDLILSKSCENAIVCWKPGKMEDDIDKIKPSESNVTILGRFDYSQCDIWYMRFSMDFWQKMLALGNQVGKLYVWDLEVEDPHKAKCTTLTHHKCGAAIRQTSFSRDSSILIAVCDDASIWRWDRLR
compound,measurement,setting,value
CCN(c1cc(-c2ccc(CN3CCOCC3)cc2)cc(C(=O)NCc2c(C)cc(C)[nH]c2=O)c1C)C1CCOCC1 [TAZEMETOSTAT],fraction unbound,[1],0.014
same,AUC/dose,Mus musculus [2],1303 nM·h
same,clearance,in vivo [3],22 mL/min/kg
same,IC50,KARPAS-422 [4],12 nM
same,bioavailability,[5],20%
same,fAUC/dose,Mus musculus [6],4 nM·h
same,Vd,in vivo [7],1.2 L/kg
same,AUC/dose,Mus musculus [8],254 nM·h
same,half-life,in vivo [9],1.6 h
N#Cc1c2c(c3nncn3c1NCc1ccco1)CN(Cc1ccccc1)CC2,IC50,Polycomb protein EED [10],3280 nM
same,IC50,Polycomb protein EED [11],4030 nM
same,IC50,Polycomb protein EED [12],620 nM
COc1ccccc1CNc1c(C#N)cc(-c2ccc(CN(C)C)cc2)c2nncn12,IC50,Polycomb protein EED [11],14900 nM
CS(=O)(=O)c1ccc(-c2cnc(NCc3ccco3)n3cnnc23)cc1,solubility,[13],55 µg/mL
same,fAUC/dose,Canis familiaris,1907 nM·h
same,fraction unbound,[1],0.144 to 0.15
same,AUC/dose,Mus musculus [2],534 nM·h
same,clearance,[14],16 mL/min/kg
same,clearance,in vivo [3],8 mL/min/kg
same,Activity,Mus musculus [15],Dose-dependent effect
same,Activity,Mus musculus [16],Active
same,bioavailability,[17],68%
same,IC50,KARPAS-422 [4],80 nM
same,IC50,Polycomb protein EED [10],220 nM
same,fraction unbound,[18],0.08
same,Activity,KARPAS-422 [19],Active
same,clearance,[20],14 mL/min/kg
same,IC50,Polycomb protein EED [11],22 nM
same,solubility,[21],26 µg/mL
same,fraction unbound,[22],0.24
same,Papp A→B,[23],3 ×10⁻⁶ cm/s
same,F,Mus musculus [24],109%
same,solubility thermodynamic,[25],12 µM
same,fAUC/dose,Mus musculus [6],813 nM·h
same,fAUC/dose,Rattus norvegicus,1871 nM·h
same,Vd,in vivo [7],0.8 L/kg
same,AUC/dose,Mus musculus [8],5648 nM·h
same,fraction unbound,[26],0.13
same,half-life,in vivo [9],2.2 h
same,bioavailability,[27],60%
same,solubility,[28],25 µg/mL
same,solubility thermodynamic,[29],35 µg/mL
same,Activity,Mus musculus [30],Non-Toxic
Cc1ccc(CNc2ncc(-c3ccc(CN(C)C)cc3)c3nncn23)s1,IC50,Polycomb protein EED [11],12400 nM
Cc1ccsc1CNc1ncc(-c2ccc(CN(C)C)cc2)c2nncn12,IC50,Polycomb protein EED [11],49 nM
Cc1ccsc1CNc1c(C#N)cc(-c2ccc(CN(C)C)cc2)c2nncn12,IC50,Polycomb protein EED [11],21800 nM
CN(C)Cc1ccc(-c2cc(C#N)c(NCc3ccccc3)n3cnnc23)cc1,IC50,Polycomb protein EED [11],21800 nM
N#Cc1ccc2nncn2c1NCc1ccco1,IC50,Polycomb protein EED [11],1000 nM
CN(C)Cc1ccc(-c2cnc(NCc3cccs3)n3cnnc23)cc1,IC50,Polycomb protein EED [11],93 nM
Cc1ccc(CNc2c(C#N)cc(-c3ccc(CN(C)C)cc3)c3nncn23)s1,IC50,Polycomb protein EED [11],2220 nM
CN(C)Cc1ccc(-c2cnc(NCc3ccoc3)n3cnnc23)cc1,IC50,Polycomb protein EED [11],19 nM
N#Cc1c2c(c3nncn3c1Cl)CN(Cc1ccccc1)CC2,IC50,Polycomb protein EED [11],> 100000 nM
c1ccc(-c2cnc(NCc3ccco3)n3cnnc23)cc1,IC50,Polycomb protein EED [11],52 nM
c1coc(CNc2ncc(-c3ccc(CN4CCCC4)cc3)c3nncn23)c1,fraction unbound,[1],0.381
same,AUC/dose,Mus musculus [2],765 nM·h
same,IC50,KARPAS-422 [4],88 nM
same,IC50,Polycomb protein EED [10],32 nM
same,IC50,Polycomb protein EED [11],7 nM
same,bioavailability,[5],71%
same,fAUC/dose,Mus musculus [6],202 nM·h
same,AUC/dose,Mus musculus [8],531 nM·h
same,hepatic extraction ratio,[31],0.52
CN(C)Cc1ccc(-c2cnc(NCc3sccc3Cl)n3cnnc23)cc1,IC50,Polycomb protein EED [11],53 nM
CN(C)Cc1ccc(-c2cc(C#N)c(NCc3sccc3Cl)n3cnnc23)cc1,IC50,Polycomb protein EED [11],2340 nM
